Assay results taken from patent US20200009029A1, “COSMETIC COMPOSITION COMPRISING WATER DEPLETED IN 2H AND 18O ISOTOPS” (MEDENA AG, priority 2016, published 2020).

What was measured:
[1] = Stability of verbascoside in merystem cell homogenate / carboxyl methyl cellulose mixture over thirty days (HPLC); assay type: physicochemical; details: 0.1 weight-% carboxyl methyl cellulose, initial 100 μM, darkness, 25° C., 30 days
Procedure: Merystem plant cells containing highly oxydisable active principles such as polyphenols (in this example verbascoside) were homogenized in ^18O and ^2H depleted (De-O,D) water having a concentration of 99.894 weight-% (and for comparison in distilled natural water). A hydrogel-forming substance, namely carboxyl methyl cellulose was added to the solutions in a concentration of 0.1 weight-%. The final concentration of verbascoside in the mixture was determined to be 100 μM by HPLC method using chromatographic standard of verbascoside. This concentration corresponds to 6 mg/100 ml or 0.006 weight-%. The maximum of the absorbance spectrum was obtained at 278 nm and retention time 15.65 min. The mixture was left in darkness at room temperature (25° C.) for thirty days. After this period, the mixture was analyzed for the presence and concentration of verbascoside.

[2] = Superoxide scavenging activity (antioxidant capacity), superoxide dismutase dependent reduction of cytochrome c; assay type: biochemical

presence and concentration of verbascoside after thirty days (HPLC) ([1]; mixture in 18O and 2H depleted (De-O,D) water): retained practically the initial levels
presence and concentration of verbascoside after thirty days (HPLC) ([1]; mixture in distilled natural water): did not contain any measurable amounts
SMILES: C[C@@H]1O[C@@H](O[C@@H]2[C@@H](O)[C@H](OCCc3ccc(O)c(O)c3)O[C@H](CO)[C@H]2OC(=O)/C=C/c2ccc(O)c(O)c2)[C@H](O)[C@H](O)[C@H]1O [verbascoside]
superoxide scavenging activity (antioxidant capacity) ([2]; mixture in natural water, day 30): not measurable
superoxide scavenging activity (antioxidant capacity) ([2]; mixture with De-O,D water, carboxy methyl cellulose and merystem cell homogenate, to day 30): remained practically unchanged
superoxide scavenging activity (antioxidant capacity) ([2]; mixtures of Example 1, day 0): possessed superoxide scavenging activity
